Assay: gradient 5% acetonitrile 3 min, to 50% in 2 min, to 85% in 15 min, held 3 min, 100 µL/min
Details: column: Zorbax Extend-C18 2.1 x 50 mm; eluents: water / acetonitrile, 0.1% formic acid
Outline: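 Using water and acetonitrile that each contained 0.1% formic acid, mixtures of ~100 pure standards were separated at 100 μL/min on a Zorbax Extend-C18 column (2.1 × 50 mm, 1.8 μm). The HPLC fed a quadrupole time-of-flight mass spectrometer working in positive and negative ionization mode, with dead and dwell volumes of 40 μL and 900 μL. Data were acquired over 3 months. Retention time was read from computationally picked adduct peaks after manual inspection of each.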

Row | RP-LC retention time [s] | SMILES
1 | 670 | Cc1nc2ccn(Cc3cccs3)c(=O)c2cc1C(=O)NCC1CCCO1 (stereo not drawn)
2 | 648 | CC(C)n1cnc2cc(CNC(=O)C3(c4ccccc4)CC3)ccc21
3 | 866 | Cc1c(F)cccc1NC(=O)Nc1ccc(Nc2cc(-n3cccn3)ncn2)cc1
4 | 622 | CCOC(=O)c1cccc(Nc2ncccc2S(=O)(=O)NC)c1
5 | 975 | CCN1C(=O)COc2ccc(-c3noc(CNC(=O)C(c4ccccc4)c4ccccc4)n3)cc21
6 | 903 | O=C(CN1C(=O)CCc2cc(Br)ccc21)Nc1ccc(F)cc1
7 | 766 | COC(=O)Nc1nc(CC(=O)Nc2ccc(OC(F)(F)F)cc2)cs1
8 | 960 | Cc1ccccc1CNS(=O)(=O)c1cn(C(C)C)c2ncccc12
9 | 931 | CCc1noc(-c2ccnc(-n3ncc(C(=O)NCC(C)C)c3C)c2)n1
10 | 656 | CCCc1cc(N2CCN(C(=O)C(C)Oc3ccccc3)CC2)nc2nnc(C)n12 (stereo not drawn)
11 | 571 | COC(=O)C1=C(CN2CCOCC2)NC(=O)NC1c1ccc(OC)c(OC)c1 (stereo not drawn)
12 | 876 | CCOc1ccc(NS(=O)(=O)c2cc(C(=O)N3CCN(c4ccc(F)cc4)CC3)n[nH]2)cc1
13 | 992 | O=C(Nc1ccc(N2CCOCC2)cc1)C1=Cc2cc(Cl)ccc2OC=C1
14 | 610 | CC(C)NC(=O)N1CCCC(Cn2cnc3cccnc32)C1 (stereo not drawn)
15 | 704 | Cn1c(=O)n(CC(=O)O)c(=O)c2c1nc1n2CCN1c1ccc(F)cc1
16 | 718 | CCc1ccccc1S(=O)(=O)NCc1cccnc1-c1ccc(OC)cc1
17 | 745 | COc1cccc(NC(=O)N2CCC3(CC2)NC(=O)c2ccccc2O3)c1
18 | 1020 | CCCn1c(=O)sc2cc(S(=O)(=O)N3CCC(C(=O)N4CCc5ccccc54)CC3)ccc21
19 | 569 | O=C1NC(C(=O)NC2CC2)Cn2cccc21 (stereo not drawn)

Row | RP-LC retention time [s] | SMILES
20 | 560 | Cc1cccc2c(C(N)=O)c3c(nc12)CCC3
21 | 993 | CCn1nccc1-c1cccc(-c2noc(CCS(=O)(=O)c3ccc(C)cc3)n2)c1
22 | 1340 | CCCOc1nc2ccccc2nc1N1CCCC(C(=O)Nc2cc(C)ccc2C)C1 (stereo not drawn)
23 | 663 | CCC1CN2C=NC(N3CCN(C(=O)Nc4cccc(SC)c4)CC3)=CC2=N1 (stereo not drawn)
24 | 679 | COCc1nncn1C1CCN(S(=O)(=O)c2cc(F)ccc2OC)CC1
25 | 1010 | CC(C)Oc1ccccc1Cn1c(=O)oc2ccccc21
26 | 874 | COc1ccc(-c2cn3ccn(-c4cc(C)cc(C)c4)c(=O)c3n2)cc1
27 | 837 | O=C(C1CC(=O)N(c2n[nH]c3cccc(F)c23)C1)N1CCN(c2cccc(Cl)c2)CC1 (stereo not drawn)
28 | 627 | COC(=O)c1cnc2nc(C)ccc2c1Nc1ccccc1
29 | 679 | Cc1cc(C(F)(F)F)nc(Nc2nc(C)c3ccccc3n2)n1
30 | 861 | CCn1cnc2ccc(-c3noc(-c4cccc(Cl)c4)n3)cc21
31 | 1240 | CCC(C)(C)NS(=O)(=O)c1ccc(-c2nc(C(C)C)cs2)s1
32 | 811 | O=C(c1c[nH]c2ccccc12)N1CCN(c2cc(-c3ccc(Cl)cc3)[nH]n2)CC1
33 | 667 | COc1cc(O)ccc1-c1nc2cccc(C)n2c1Nc1ccccc1C
34 | 606 | O=C(NCCCN1CCCCC1)C1CCN(c2cnn(Cc3ccccc3)c(=O)c2)CC1
35 | 623 | COC(=O)c1nnn(-c2ccc(C)cc2)c1C(=O)OC
36 | 873 | COc1ccccc1Oc1ccc(S(=O)(=O)NCc2ccco2)cc1
37 | 714 | C=CCNCc1ccc(-c2cccc(C(F)(F)F)c2)o1
38 | 919 | O=C(COc1ccccc1)Nc1cnc(N2CCCCC2)nc1
